Patent US10988792B2, “Methods for antimicrobial resistance determination” (bioMerieux, Inc., priority 2009, dated 2021)

Key:
Type in all cases: cell-based
[1] = test system: S. aureus isolates; assay: Vitek AST cards MIC; conditions: 3/5 strains classified as benzyl-penicillin resistant and oxacillin sensitive by Vitek cards
Procedure: Twenty different strains of S. aureus (10 MRSA and 10 MSSA strains, confirmed with cefoxitin discs and Vitek-2) were propagated. A loopful of growth (1 μL) was removed from 24-hour plates and suspended in BacT/ALERT SA culture media (8 ml in a glass screw-capped tube). The tubes were vortexed well and incubated at 36° C. for 6 hours. The OD of each suspension was measured at 660 nm and adjusted to approximately the same density (0.50-0.75 OD; sample #12166 was only 0.28). 50 μM BOCILLIN™-FL (0.1 ml) was placed into each of 20 labeled microfuge tubes. A sample of each strain (0.9 ml) was added to each tube, mixed, and incubated at 37° C. for 30 minutes. The reaction mixture was then removed and added to a second set of tubes containing 0.2 ml of an oil blend (1.000 part type DF immersion oil plus 0.875 part Drakeol 5 mineral oil). The tubes were centrifuged for 2 minutes at 10,000 rpm in an A-8-11 rotor (Eppendorf 5417R). The supernatant and most of the oil was aspirated with a vacuum device. The remaining oil was removed using a Gilson P200 tip and the pellet was resuspended in 100 μl PBS. The cells were transferred to an acrylic cuvette containing 3 ml PBS and read in the FluoroLog 3 system using the FluoroScan “Bocillin” points listed in Table 3. Additionally, Vitek AST cards were run on each of the 20 isolates (from the same 24 hour plates).

[2] = test system: E. faecium 12480 (VSE); assay: Co-culture with vancomycin and Sytox Green, intrinsic fluorescence and membrane integrity of pellet; conditions: for Microbial NADH fluorescence (Ex340 nm/Em440 nm) / Microbial tryptophan fluorescence (Ex300 nm/Em360 nm): 12480 (VSE)
Procedure: For each test strain, a 1 μL loopful of colonies from a 24-48 hour plate was suspended in 10-12 mL of BacT/ALERT SA media and cultured for 4-9 hours at 37° C. Samples of each log phase culture were then incubated with 0, 0.25, 2.5 and 12.5 μg/mL of vancomycin-HCl in combination with 1:5000 dilution of stock Sytox Green, a viable cell impermeant DNA stain (Molecular Probes, cat #S7020), for a period of 4 hours at 37° C. Aliquots of the cultures were removed for analysis immediately (T0) and after 1, 2.5 and 4 hours.
(§1) At the appropriate time-point, 0.5 mL aliquots of the cultures (0.5 mL) were overlaid on a density cushion composed of 24% w/v CsCl in 10 mM Hepes, pH 7.4 and 0.005% Pluronic F-108 contained in custom-made optical centrifugation tubes as disclosed in related U.S. patent application, Ser. No. 12/589,969, entitled “Separation Device for Use in the Separation, Characterization and/or Identification of Microorganisms”, filed Oct. 30, 2009. The tubes were sealed and centrifuged at 10,000 rpm for 2 minutes to separate intact microorganisms from the culture medium and unbound chemicals. The tubes were then placed into a custom-built tube holder directly onto a fiber optic probe built into the base. The probe was attached to a FluoroLog 3 spectrofluorimeter. The tube was interrogated through its UV-transparent base, and fluorescence and diffuse reflectance readings collected.

[3] = test system: E. faecium #13185 (VRE); assay: Vancomycin MIC by VITEK 2; conditions: read-out: vancomycin MIC by VITEK 2
[4] = test system: E. faecium 12406 (VRE); assay: Co-culture with vancomycin and Sytox Green, intrinsic fluorescence and membrane integrity of pellet; conditions: for Microbial NADH fluorescence (Ex340 nm/Em440 nm) / Microbial tryptophan fluorescence (Ex300 nm/Em360 nm): 12406 (VRE)
Procedure: (§2) For each test strain, a 1 μL loopful of colonies from a 24-48 hour plate was suspended in 10-12 mL of BacT/ALERT SA media and cultured for 4-9 hours at 37° C. […] Aliquots of the cultures were removed for analysis immediately (T0) and after 1, 2.5 and 4 hours.
as §1

[5] = test system: E. faecium 13185 (VRE); assay: as above; conditions: for Microbial NADH fluorescence (Ex340 nm/Em440 nm) / Microbial tryptophan fluorescence (Ex300 nm/Em360 nm): 13185 (VRE)
Procedure: as §2, §1

[6] = test system: E. faecium #12406 (VRE); assay: Vancomycin MIC by VITEK 2; conditions: read-out: vancomycin MIC by VITEK 2
[7] = VSE strain 12480, vancomycin 2.5 and 12.5 μg/mL
[8] = VRE strain 12406, vancomycin 2.5 and 12.5 μg/mL
[9] = VRE strain 13185, vancomycin 2.5 and 12.5 μg/mL

Compound `Cc1onc(-c2ccccc2)c1C(=O)N[C@@H]1C(=O)N2[C@@H]1SC(C)(C)[C@@H]2C(=O)O` [oxacillin] has an oxacillin MIC [1] of 0.5 µg/mL.

`CN[C@H](CC(C)C)C(=O)N[C@H]1C(=O)N[C@@H](CC(N)=O)C(=O)N[C@H]2C(=O)N[C@H]3C(=O)N[C@H](C(=O)N[C@H](C(=O)O)c4cc(O)cc(O)c4-c4cc3ccc4O)[C@H](O)c3ccc(c(Cl)c3)Oc3cc2cc(c3O[C@@H]2O[C@H](CO)[C@@H](O)[C@H](O)[C@H]2O[C@H]2C[C@](C)(N)[C@H](O)[C@H](C)O2)Oc2ccc(cc2Cl)[C@H]1O` [vancomycin] was tested, and the “Microbial NADH fluorescence (Ex340 nm/Em440 nm)” value (“Microbial NADH fluorescence” for short) ([2]; Vanc. 0.25 μg/mL, 1 hour) was 271,470, the “Microbial tryptophan fluorescence (Ex300 nm/Em360 nm)” value (“Microbial tryptophan fluorescence” for short) ([2]; Vanc. 0.25 μg/mL, 1 hour) was 460,266 and the “Microbial NADH fluorescence” value ([2]; Vanc. 0.25 μg/mL, 2.5 hour) was 500,618. The “Microbial tryptophan fluorescence” value ([2]; Vanc. 0.25 μg/mL, 2.5 hour) was 678,352, the “Microbial NADH fluorescence” value ([2]; Vanc. 0.25 μg/mL, 4 hour) was 483,445 and the “Microbial tryptophan fluorescence” value ([2]; Vanc. 0.25 μg/mL, 4 hour) was 706,797. For the same compound, the “Microbial NADH fluorescence” value ([2]; Vanc. 0.25 μg/mL, Zero time) was 184,649, the “Microbial tryptophan fluorescence” value ([2]; Vanc. 0.25 μg/mL, Zero time) was 425,539 and the “Microbial NADH fluorescence” value ([2]; Vanc. 2.5 μg/mL, 1 hour) was 254,828. The “Microbial tryptophan fluorescence” value ([2]; Vanc. 2.5 μg/mL, 1 hour) was 438,541, the “Microbial NADH fluorescence” value ([2]; Vanc. 2.5 μg/mL, 2.5 hour) was 149,686 and the “Microbial tryptophan fluorescence” value ([2]; Vanc. 2.5 μg/mL, 2.5 hour) was 466,525. For the same compound, the “Microbial NADH fluorescence” value ([2]; Vanc. 2.5 μg/mL, 4 hour) was 100,931, the “Microbial tryptophan fluorescence” value ([2]; Vanc. 2.5 μg/mL, 4 hour) was 416,780 and the “Microbial NADH fluorescence” value ([2]; Vanc. 2.5 μg/mL, Zero time) was 221,692. The “Microbial tryptophan fluorescence” value ([2]; Vanc. 2.5 μg/mL, Zero time) was 361,962, the “Microbial NADH fluorescence” value ([2]; Vanc. 12.5 μg/mL, 1 hour) was 210,963 and the “Microbial tryptophan fluorescence” value ([2]; Vanc. 12.5 μg/mL, 1 hour) was 428,402. For the same compound, the “Microbial NADH fluorescence” value ([2]; Vanc. 12.5 μg/mL, 2.5 hour) was 171,994, the “Microbial tryptophan fluorescence” value ([2]; Vanc. 12.5 μg/mL, 2.5 hour) was 455,446 and the “Microbial NADH fluorescence” value ([2]; Vanc. 12.5 μg/mL, 4 hour) was 127,042. The “Microbial tryptophan fluorescence” value ([2]; Vanc. 12.5 μg/mL, 4 hour) was 438,978, the “Microbial NADH fluorescence” value ([2]; Vanc. 12.5 μg/mL, Zero time) was 178,982 and the “Microbial tryptophan fluorescence” value ([2]; Vanc. 12.5 μg/mL, Zero time) was 389,264. For the same compound, the “Course of cellular NADH levels” value [2, 7] was “gradually declined over time”, the “Course of cellular tryptophan levels” value [2, 7] was “remained stable over time” and the MIC [3] was over 32 µg/mL. The “Microbial NADH fluorescence” value ([4]; Vanc. 0.25 μg/mL, 1 hour) was 616,448, the “Microbial tryptophan fluorescence” value ([4]; Vanc. 0.25 μg/mL, 1 hour) was 666,793 and the “Microbial NADH fluorescence” value ([4]; Vanc. 0.25 μg/mL, 2.5 hour) was 703,451. The “Microbial tryptophan fluorescence” value ([4]; Vanc. 0.25 μg/mL, 2.5 hour) was 679,880, the “Microbial NADH fluorescence” value ([4]; Vanc. 0.25 μg/mL, 4 hour) was 598,853 and the “Microbial tryptophan fluorescence” value ([4]; Vanc. 0.25 μg/mL, 4 hour) was 800,658. The “Microbial NADH fluorescence” value ([4]; Vanc. 0.25 μg/mL, Zero time) was 207,307, the “Microbial tryptophan fluorescence” value ([4]; Vanc. 0.25 μg/mL, Zero time) was 463,942 and the “Microbial tryptophan fluorescence” value ([4]; Vanc. 2.5 μg/mL, 1 hour) was 560,948. The “Microbial NADH fluorescence” value ([4]; Vanc. 2.5 μg/mL, 2.5 hour) was 573,926, the “Microbial tryptophan fluorescence” value ([4]; Vanc. 2.5 μg/mL, 2.5 hour) was 656,768 and the “Microbial NADH fluorescence” value ([4]; Vanc. 2.5 μg/mL, 4 hour) was 931,786. The “Microbial tryptophan fluorescence” value ([4]; Vanc. 2.5 μg/mL, 4 hour) was 651,886, the “Microbial NADH fluorescence” value ([4]; Vanc. 2.5 μg/mL, Zero time) was 440,416 and the “Microbial tryptophan fluorescence” value ([4]; Vanc. 2.5 μg/mL, Zero time) was 425,860. For the same compound, the “Microbial NADH fluorescence” value ([4]; Vanc. 12.5 μg/mL, 1 hour) was 207,520, the “Microbial tryptophan fluorescence” value ([4]; Vanc. 12.5 μg/mL, 1 hour) was 433,269 and the “Microbial NADH fluorescence” value ([4]; Vanc. 12.5 μg/mL, 2.5 hour) was 279,170. For the same compound, the “Microbial tryptophan fluorescence” value ([4]; Vanc. 12.5 μg/mL, 2.5 hour) was 560,607, the “Microbial NADH fluorescence” value ([4]; Vanc. 12.5 μg/mL, 4 hour) was 765,401 and the “Microbial tryptophan fluorescence” value ([4]; Vanc. 12.5 μg/mL, 4 hour) was 738,461. For the same compound, the “Microbial NADH fluorescence” value ([4]; Vanc. 12.5 μg/mL, Zero time) was 172,372, the “Microbial tryptophan fluorescence” value ([4]; Vanc. 12.5 μg/mL, Zero time) was 463,985 and the “Course of cellular NADH levels” value [4, 8] was “rose after approximately 1 hour in culture and continued to rise over the 4-hour culture period”. For the same compound, the “Course of cellular tryptophan levels” value [4, 8] was “rose slowly over the 4-hour culture period”, the “Delay in NADH production compared with the other VRE strain” value ([4]; VRE strain #12406, correlated with an influx of Sytox Green) was “longer delay in NADH production” and the “Microbial NADH fluorescence” value ([5]; Vanc. 0.25 μg/mL, 1 hour) was 708,442. For the same compound, the “Microbial tryptophan fluorescence” value ([5]; Vanc. 0.25 μg/mL, 1 hour) was 557,453, the “Microbial NADH fluorescence” value ([5]; Vanc. 0.25 μg/mL, 2.5 hour) was 496,545 and the “Microbial tryptophan fluorescence” value ([5]; Vanc. 0.25 μg/mL, 2.5 hour) was 809,317. For the same compound, the “Microbial NADH fluorescence” value ([5]; Vanc. 0.25 μg/mL, 4 hour) was 627,392, the “Microbial tryptophan fluorescence” value ([5]; Vanc. 0.25 μg/mL, 4 hour) was 880,899 and the “Microbial NADH fluorescence” value ([5]; Vanc. 0.25 μg/mL, Zero time) was 316,618. The “Microbial tryptophan fluorescence” value ([5]; Vanc. 0.25 μg/mL, Zero time) was 546,862, the “Microbial NADH fluorescence” value ([5]; Vanc. 2.5 μg/mL, 1 hour) was 237,463 and the “Microbial tryptophan fluorescence” value ([5]; Vanc. 2.5 μg/mL, 1 hour) was 569,043. The “Microbial NADH fluorescence” value ([5]; Vanc. 2.5 μg/mL, 2.5 hour) was 965,305, the “Microbial tryptophan fluorescence” value ([5]; Vanc. 2.5 μg/mL, 2.5 hour) was 489,661 and the “Microbial NADH fluorescence” value ([5]; Vanc. 2.5 μg/mL, 4 hour) was 782,908. For the same compound, the “Microbial tryptophan fluorescence” value ([5]; Vanc. 2.5 μg/mL, 4 hour) was 868,768, the “Microbial NADH fluorescence” value ([5]; Vanc. 2.5 μg/mL, Zero time) was 256,533 and the “Microbial tryptophan fluorescence” value ([5]; Vanc. 2.5 μg/mL, Zero time) was 531,239. The “Microbial tryptophan fluorescence” value ([5]; Vanc. 12.5 μg/mL, 1 hour) was 579,537, the “Microbial NADH fluorescence” value ([5]; Vanc. 12.5 μg/mL, 2.5 hour) was 775,629 and the “Microbial tryptophan fluorescence” value ([5]; Vanc. 12.5 μg/mL, 2.5 hour) was 537,067. For the same compound, the “Microbial NADH fluorescence” value ([5]; Vanc. 12.5 μg/mL, 4 hour) was 710,100, the “Microbial tryptophan fluorescence” value ([5]; Vanc. 12.5 μg/mL, 4 hour) was 782,106 and the “Microbial NADH fluorescence” value ([5]; Vanc. 12.5 μg/mL, Zero time) was 234,554. For the same compound, the “Microbial tryptophan fluorescence” value ([5]; Vanc. 12.5 μg/mL, Zero time) was 537,160, the “Course of cellular NADH levels” value [5, 9] was “rose after approximately 1 hour in culture and continued to rise over the 4-hour culture period” and the “Course of cellular tryptophan levels” value [5, 9] was “rose slowly over the 4-hour culture period”. It also gave an MIC [6] of over 32 µg/mL.
